# What was measured:
# Test in all cases: Post-emergence application in field trials
# PORPI = assay type: in vivo; details: 8 DAT; g ai/ha A-1 25, B-5 1066; height 2-8 cm; water volume 140 l/ha
# AMATU = assay type: in vivo, Amaranthus tuberculatos; details: 8 DAT; g ai/ha A-1 12.5, B-5 1066; growth stage 19; height 10-20 cm; water volume 140 l/ha
# DIGSA = test system: DIGSA
# ZEAMX = details: growth stage 15-16
# DATST = test system: DATST
# SETVI = assay type: in vivo, Setaria viridis; details: 15 DAT; g ai/ha A-1 12.5, B-5 1066, C-10 840; growth stage 13-19; height 2-18 cm; water volume 140 l/ha
# CYPES = details: 21 DAT, water volume 140 l/ha
# HORVW = details: growth stage 23-29, height 20-25 cm
# GLXMA = assay type: in vivo, Glycine max; details: Example 4; 21 DAT; g ai/ha A-1 12.5, B-5 1066; growth stage 13; height 5-8 cm
# AMAPA = test system: AMAPA
# ECHCG = assay type: in vivo, Echinochloa crus-galli
# SETVE = details: growth stage 21-23
# AMARE = assay type: in vivo, Amaranthus retroflexus; details: 8 DAT; g ai/ha A-1 25, B-5 1066; growth stage 19; height 10-20 cm; water volume 140 l/ha
smiles,measurement,setting,value
"CCOC(=O)COc1ccccc1Oc1nc(-n2c(=O)cc(C(F)(F)F)n(C)c2=O)c(F)cc1Cl [A-1, ethyl 2-[2-[[3-chloro-5-fluoro-6-[3-methyl-2,6-dioxo-4-(trifluoromethyl)pyrimidin-1-yl]-2-pyridyl]oxy]phenoxy]acetate]",% Herbicidal activity,PORPI,90%
same,% Herbicidal activity,AMATU,88%
same,% Herbicidal activity,"DIGSA; 14 DAT, g ai/ha A-1 12.5, B-5 1066, height 2-8 cm, water volume 140 l/ha",33%
same,% Herbicidal activity,"DIGSA; 14 DAT, g ai/ha A-1 25, B-5 1066, height 2-8 cm, water volume 140 l/ha",33%
same,% Herbicidal activity,"DIGSA; 14 DAT, g ai/ha A-1 50, B-5 1066, height 2-8 cm, water volume 140 l/ha",65%
same,% Herbicidal activity,"DIGSA; 15 DAT, g ai/ha A-1 12.5, B-5 1066, C-10 840, growth stage 13-19, height 2-13 cm, water volume 140 l/ha",68%
same,% Herbicidal activity,"DIGSA; 21 DAT, g ai/ha A-1 12.5, B-5 1066, C-11 655, height 2-8 cm, water volume 140 l/ha",27%
same,% Herbicidal activity,"DIGSA; 21 DAT, g ai/ha A-1 12.5, B-5 1066, height 2-8 cm, water volume 140 l/ha",27%
same,% Herbicidal activity,"DIGSA; 21 DAT, g ai/ha A-1 25, B-5 1066, C-11 655, height 2-8 cm, water volume 140 l/ha",28%
same,% Herbicidal activity,"DIGSA; 21 DAT, g ai/ha A-1 25, B-5 1066, height 2-8 cm, water volume 140 l/ha",28%
same,% Herbicidal activity,"DIGSA; 21 DAT, g ai/ha A-1 50, B-5 1066, C-11 655, height 2-8 cm, water volume 140 l/ha",55%
same,% Herbicidal activity,"DIGSA; 21 DAT, g ai/ha A-1 50, B-5 1066, height 2-8 cm, water volume 140 l/ha",55%
same,% Herbicidal activity,"DIGSA; Example 6, 7 DAT, g ai/ha A-1 12.5, B-5 1066, C-11 400, growth stage 21-22, height 15-20 cm",35%
same,% Herbicidal activity,"DIGSA; Example 6, 21 DAT, g ai/ha A-1 12.5, B-5 1066, C-11 400, growth stage 21-22, height 15-20 cm",35%
same,% Herbicidal activity,"ZEAMX; Example 4, 7 DAT, g ai/ha A-1 18, B-5 1066, height 50-60 cm",85%
same,% Herbicidal activity,"ZEAMX; Example 4, 21 DAT, g ai/ha A-1 12.5, B-5 1066, height 50-60 cm",80%
same,% Herbicidal activity,"ZEAMX; Example 5, 21 DAT, g ai/ha A-1 12.5, B-4 1066, height 50-60 cm",70%
same,% Herbicidal activity,"ZEAMX; Example 6, 7 DAT, g ai/ha A-1 12.5, B-5 1066, C-11 400, height 25-30 cm",40%
same,% Herbicidal activity,"ZEAMX; Example 6, 28 DAT, g ai/ha A-1 12.5, B-5 1066, C-11 400, height 50-60 cm",85%
same,% Herbicidal activity,"ZEAMX; Example 7, 28 DAT, g ai/ha A-1 12.5, B-4 1066, C-11 400, height 50-60 cm",50%
same,% Herbicidal activity,"ZEAMX; Example 8, 28 DAT, g ai/ha A-1 12.5, B-5 1066, C-12 252, height 50-60 cm",85%
same,% Herbicidal activity,"ZEAMX; Example 9, 28 DAT, g ai/ha A-1 12.5, B-4 1066, C-12 252, height 50-60 cm",50%
same,% Herbicidal activity,"ZEAMX; Example 11, 21 DAT, g ai/ha A-1 12.5, B-4 1066, C-4 12.5, height 50-60 cm",70%
same,% Herbicidal activity,"DATST; Example 4, 7 DAT, g ai/ha A-1 12.5, B-5 1066",90%
same,% Herbicidal activity,"DATST; Example 6, 21 DAT, g ai/ha A-1 12.5, B-5 1066, C-11 400",90%
same,% Herbicidal activity,SETVI,68%
same,% Herbicidal activity,"CYPES; g ai/ha A-1 12.5, B-5 1066, C-11 655",20%
same,% Herbicidal activity,"CYPES; g ai/ha A-1 50, B-5 1066, C-11 655",42%
same,% Herbicidal activity,"CYPES; g ai/ha A-1 50, B-5 1066",42%
same,% Herbicidal activity,"HORVW; Example 4, 21 DAT, g ai/ha A-1 12.5, B-5 1066",60%
same,% Herbicidal activity,"HORVW; Example 5, 7 DAT, g ai/ha A-1 12.5, B-4 1066",60%
same,% Herbicidal activity,"HORVW; Example 6, 28 DAT, g ai/ha A-1 12.5, B-5 1066, C-11 400",60%
same,% Herbicidal activity,"HORVW; Example 7, 28 DAT, g ai/ha A-1 12.5, B-4 1066, C-11 400",90%
same,% Herbicidal activity,"HORVW; Example 8, 21 DAT, g ai/ha A-1 12.5, B-5 1066, C-12 252",80%
same,% Herbicidal activity,"HORVW; Example 9, 21 DAT, g ai/ha A-1 12.5, B-4 1066, C-12 252",80%
same,% Herbicidal activity,"HORVW; Example 10, 21 DAT, g ai/ha A-1 12.5, B-5 1066, C-4 12.5",80%
same,% Herbicidal activity,"HORVW; Example 11, 21 DAT, g ai/ha A-1 12.5, B-4 1066, C-4 12.5",80%
same,% Herbicidal activity,GLXMA,90%
same,% Herbicidal activity,"AMAPA; 13 DAT, g ai/ha A-1 25, B-5 1066, growth stage 16, height 15-25 cm, water volume 187 l/ha",58%
same,% Herbicidal activity,"AMAPA; 14 DAT, g ai/ha A-1 12.5, B-5 1066, C-10 840, growth stage 12-24, height 5-30 cm, water volume 140 l/ha",73%
same,% Herbicidal activity,"AMAPA; 14 DAT, g ai/ha A-1 25, B-5 1066, C-10 840, growth stage 12-24, height 5-30 cm, water volume 140 l/ha",82%
same,% Herbicidal activity,"AMAPA; 19 DAT, g ai/ha A-1 12.5, B-5 1066, growth stage 16, height 15-25 cm, water volume 187 l/ha",40%
same,% Herbicidal activity,"AMAPA; 19 DAT, g ai/ha A-1 25, B-5 1066, growth stage 16, height 15-25 cm, water volume 187 l/ha",42%
same,% Herbicidal activity,"AMAPA; 19 DAT, g ai/ha A-1 50, B-5 1066, growth stage 16, height 15-25 cm, water volume 187 l/ha",52%
same,% Herbicidal activity,"AMAPA; 21 DAT, g ai/ha A-1 12.5, B-5 1066, growth stage 12-28, height 7-20 cm, water volume 140 l/ha",89%
same,% Herbicidal activity,"AMAPA; 21 DAT, g ai/ha A-1 50, B-5 1066, height 5-23 cm, water volume 140 l/ha",74%
same,% Herbicidal activity,"ECHCG; 13 DAT, g ai/ha A-1 12.5, B-5 1066, C-10 840, growth stage 21-26, height 15-30 cm, water volume 187 l/ha",23%
same,% Herbicidal activity,"ECHCG; 13 DAT, g ai/ha A-1 25, B-5 1066, C-10 840, growth stage 21-26, height 15-30 cm, water volume 187 l/ha",20%
same,% Herbicidal activity,"ECHCG; 13 DAT, g ai/ha A-1 50, B-5 1066, C-10 840, growth stage 21-26, height 15-30 cm, water volume 187 l/ha",23%
same,% Herbicidal activity,"ECHCG; Example 4, 21 DAT, g ai/ha A-1 12.5, B-5 1066, growth stage 23-30, height 15-20 cm",30%
same,% Herbicidal activity,"ECHCG; Example 6, 7 DAT, g ai/ha A-1 12.5, B-5 1066, C-11 400, growth stage 23-30, height 15-20 cm",20%
same,% Herbicidal activity,"ECHCG; Example 6, 28 DAT, g ai/ha A-1 12.5, B-5 1066, C-11 400, growth stage 23-30, height 15-20 cm",20%
same,% Herbicidal activity,"ECHCG; Example 7, 28 DAT, g ai/ha A-1 12.5, B-4 1066, C-11 400, growth stage 23-30, height 15-20 cm",20%
same,% Herbicidal activity,"ECHCG; Example 8, 7 DAT, g ai/ha A-1 12.5, B-5 1066, C-12 252, growth stage 23-30, height 15-20 cm",20%
same,% Herbicidal activity,"ECHCG; Example 8, 21 DAT, g ai/ha A-1 12.5, B-5 1066, C-12 252, growth stage 23-30, height 15-20 cm",30%
same,% Herbicidal activity,"ECHCG; Example 8, 28 DAT, g ai/ha A-1 12.5, B-5 1066, C-12 252, growth stage 23-30, height 15-20 cm",20%
same,% Herbicidal activity,"ECHCG; Example 9, 28 DAT, g ai/ha A-1 12.5, B-4 1066, C-12 252, growth stage 23-30, height 15-20 cm",20%
same,% Herbicidal activity,"ECHCG; Example 10, 21 DAT, g ai/ha A-1 12.5, B-5 1066, C-4 12.5, growth stage 23-30, height 15-20 cm",30%
same,% Herbicidal activity,"SETVE; Example 4, 21 DAT, g ai/ha A-1 12.5, B-5 1066, height 8-16 cm",65%
same,% Herbicidal activity,"SETVE; Example 6, 7 DAT, g ai/ha A-1 12.5, B-5 1066, C-11 400, height 10-15 cm",75%
same,% Herbicidal activity,"SETVE; Example 6, 21 DAT, g ai/ha A-1 12.5, B-5 1066, C-11 400, height 10-15 cm",55%
same,% Herbicidal activity,AMARE,88%

# Source: US12708116B2, “Herbicidal compositions comprising 2,4-D” (BASF SE, priority 2023, dated 2026)
